Structures are written as SMILES. Bridge positions count the residues as written; N and C are the ends. Square brackets hold non-standard residues; d marks the D form. Peptide text beside a SMILES is read from it. * marks the point of attachment. DOTA = O=C(O)CN1CCN(CC(=O)O)CCN(CC(=O)*)CCN(CC(=O)O)CC1; 1Nal = N[C@@H](Cc1cccc2ccccc12)C(=O)O; 2Nal = N[C@@H](Cc1ccc2ccccc2c1)C(=O)O; Ala(4-THP) = N[C@@H](CC1CCOCC1)C(=O)O; Gly(4-THP) = N[C@H](C(=O)O)C1CCOCC1; 3Pal = N[C@@H](Cc1cccnc1)C(=O)O; 4Pal = N[C@@H](Cc1ccncc1)C(=O)O; Chg = N[C@H](C(=O)O)C1CCCCC1; Tle = CC(C)(C)[C@H](N)C(=O)O; αMeP = C[C@@]1(C(=O)O)CCCN1; Pip = O=C(O)[C@@H]1CCCCN1

This is an account of results in patent US20250186541A1, “DLL3 TARGETING PEPTIDES AND CONSTRUCTS THEREOF” (MARIANA ONCOLOGY INC., priority 2023, published 2025).

The assay deals with T1, human DLL3 (Homo sapiens, UniProt Q9NYJ7).
T1 construct: biotin (biotinylated)
T1 sequence (Q9NYJ7 27-618): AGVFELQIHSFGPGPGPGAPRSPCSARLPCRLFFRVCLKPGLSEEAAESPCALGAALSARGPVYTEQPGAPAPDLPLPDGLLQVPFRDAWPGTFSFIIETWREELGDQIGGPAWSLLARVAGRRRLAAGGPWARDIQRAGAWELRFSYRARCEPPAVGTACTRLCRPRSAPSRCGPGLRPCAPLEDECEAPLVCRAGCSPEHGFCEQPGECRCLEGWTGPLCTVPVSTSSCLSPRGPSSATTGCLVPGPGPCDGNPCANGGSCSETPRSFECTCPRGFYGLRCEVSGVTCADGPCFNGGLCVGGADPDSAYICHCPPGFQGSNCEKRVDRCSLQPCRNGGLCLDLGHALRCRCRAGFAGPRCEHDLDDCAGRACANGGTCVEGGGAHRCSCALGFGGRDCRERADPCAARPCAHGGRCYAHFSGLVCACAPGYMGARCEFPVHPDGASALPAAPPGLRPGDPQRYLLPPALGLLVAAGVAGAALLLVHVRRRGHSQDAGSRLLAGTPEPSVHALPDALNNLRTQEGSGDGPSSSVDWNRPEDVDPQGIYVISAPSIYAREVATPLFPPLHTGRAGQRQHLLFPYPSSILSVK
Put plainly: Affinity determination by Surface Plasmon Resonance (SPR), Biacore, 1:1 binding model. The settings on record: biotinylated human DLL3 on streptavidin chip, 25° C.; NB = nonbinding. The essentials: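 SPR with biotinylated human DLL3 captured on a streptavidin chip, with a reference surface subtracted. Samples were injected at several concentrations at 100 μL/min in phosphate buffer with 137 mM NaCl, 2.7 mM KCl, 0.05% P20 and 2% DMSO. Kinetic and affinity constants came from a 1:1 binding fit.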
On the technique in general: In SPR one partner is held on a chip, and binding of the other changes the refractive index at the surface.
For `CC(=O)N[C@H](C(=O)N[C@@H](CO)C(=O)N[C@@H](CC(=O)O)C(=O)N[C@H]1CSSC[C@@H](C(=O)N2CCC[C@@]2(C)C(=O)N[C@@H](Cc2ccccc2)C(=O)N[C@@H](CC(=O)O)C(=O)N[C@H](CCCCNC(=O)CN2CCN(CC(=O)O)CCN(CC(=O)O)CCN(CC(=O)O)CC2)C(N)=O)NC(=O)[C@H](CC(N)=O)NC(=O)[C@H](Cc2ccc3ccccc3c2)NC(=O)[C@H](CCC(N)=O)NC(=O)[C@H](C(C)(C)C)NC(=O)[C@H](Cc2cccc3ccccc23)NC1=O)C1CCCCC1` [compound 129, Ac-(Chg)-S-D-C(3)-(1Nal)-(TBG)-Q-(2Nal)-N-C(3)-(aMe-P)-F-D-D-Lys(DOTA)-CONH2] (Ac-[Chg]SDC[1Nal][Tle]Q[2Nal]NC[αMeP]FD[dK](DOTA)-NH2; disulfide 4-10), the “SPR KD (nM)” value is recorded as “slow kon”.
Same read-out and setting: for `CC(=O)N[C@H](C(=O)N[C@@H](CO)C(=O)N[C@@H](CC(=O)O)C(=O)N[C@H]1CSSC[C@@H](C(=O)N2CCC[C@@]2(C)C(=O)N[C@@H](Cc2ccccc2)C(=O)N[C@@H](CC(=O)O)C(=O)N[C@H](CCCCNC(=O)CN2CCN(CC(=O)O)CCN(CC(=O)O)CCN(CC(=O)O)CC2)C(N)=O)NC(=O)[C@H](CC(N)=O)NC(=O)[C@H](Cc2ccc3ccccc3c2)NC(=O)[C@H](CCC(N)=O)NC(=O)[C@@H]2CCCCN2C(=O)[C@H](Cc2cccc3ccccc23)NC1=O)C1CCCCC1` [compound 130, Ac-(Chg)-S-D-C(3)-(1Nal)-(PIP)-Q-(2Nal)-N-C(3)-(aMe-P)-F-D-D-Lys(DOTA)-CONH2] (Ac-[Chg]SDC[1Nal][Pip]Q[2Nal]NC[αMeP]FD[dK](DOTA)-NH2; disulfide 4-10) the value was “slow kon”.
What is called Kd is the equilibrium constant for the complex coming apart. A lower Kd goes with tighter binding. On to `CC(=O)N[C@H](C(=O)N[C@@H](CO)C(=O)N[C@@H](CC(=O)O)C(=O)N[C@H]1CSSC[C@@H](C(=O)N2CCC[C@@]2(C)C(=O)N[C@@H](Cc2ccccc2)C(=O)N[C@@H](CC(=O)O)C(=O)N[C@H](CCCCNC(=O)CN2CCN(CC(=O)O)CCN(CC(=O)O)CCN(CC(=O)O)CC2)C(N)=O)NC(=O)[C@H](CC(N)=O)NC(=O)[C@H](Cc2ccc3ccccc3c2)NC(=O)[C@H](CCC(N)=O)NC(=O)[C@H](C(C)(C)C)NC(=O)[C@H](Cc2cccc3ccccc23)NC1=O)C1CCCCC1` [compound 131, Ac-(Chg)-S-D-C(3)-(1Nal)-(D-Leu)-Q-(2Nal)-N-C(3)-(aMe-P)-F-D-D-Lys(DOTA)-CONH2] (Ac-[Chg]SDC[1Nal][Tle]Q[2Nal]NC[αMeP]FD[dK](DOTA)-NH2; disulfide 4-10), for which the Kd came to 0.95 nM.
`CC(=O)N[C@H](C(=O)N[C@@H](CO)C(=O)N[C@@H](CC(=O)O)C(=O)N[C@H]1CSSC[C@@H](C(=O)N2CCC[C@@]2(C)C(=O)N[C@@H](Cc2ccccc2)C(=O)N[C@@H](CC(=O)O)C(=O)N[C@H](CCCCNC(=O)CN2CCN(CC(=O)O)CCN(CC(=O)O)CCN(CC(=O)O)CC2)C(N)=O)NC(=O)[C@H](CC(N)=O)NC(=O)[C@H](Cc2c[nH]c3ccccc23)NC(=O)[C@H](CC2CCOCC2)NC(=O)[C@H](CC(C)C)NC(=O)[C@H](Cc2cccc3ccccc23)NC1=O)C1CCCCC1` [compound 132, Ac-(Chg)-S-D-C(3)-(1Nal)-L-(THPA)-W-N-C(3)-(aMe-P)-F-D-[D-Lys(DOTA)]-NH2] (Ac-[Chg]SDC[1Nal]L[Ala(4-THP)]WNC[αMeP]FD[dK](DOTA)-NH2; disulfide 4-10): the affinity, expressed as Kd, was 0.21 nM.
The same measure, in the same setting: the same measure for `CC(=O)N[C@H](C(=O)N[C@@H](CO)C(=O)N[C@@H](CC(=O)O)C(=O)N[C@H]1CSSC[C@@H](C(=O)N2CCC[C@@]2(C)C(=O)N[C@@H](Cc2ccccc2)C(=O)N[C@@H](CC(=O)O)C(=O)N[C@H](CCCCNC(=O)CN2CCN(CC(=O)O)CCN(CC(=O)O)CCN(CC(=O)O)CC2)C(N)=O)NC(=O)[C@H](CC(N)=O)NC(=O)[C@H](Cc2c[nH]c3ccccc23)NC(=O)[C@H](C2CCOCC2)NC(=O)[C@H](CC(C)C)NC(=O)[C@H](Cc2cccc3ccccc23)NC1=O)C1CCCCC1` [compound 133, Ac-(Chg)-S-D-C(3)-(1Nal)-L-(THPG)-W-N-C(3)-(aMe-P)-F-D-[D-Lys(DOTA)]-NH2] (Ac-[Chg]SDC[1Nal]L[Gly(4-THP)]WNC[αMeP]FD[dK](DOTA)-NH2; disulfide 4-10): more than 30 nM; for `CC(=O)N[C@H](C(=O)N[C@@H](CO)C(=O)N[C@@H](CC(=O)O)C(=O)N[C@H]1CSSC[C@@H](C(=O)N2CCC[C@@]2(C)C(=O)N[C@@H](Cc2ccccc2)C(=O)N[C@@H](CC(=O)O)C(=O)N[C@H](CCCCNC(=O)CN2CCN(CC(=O)O)CCN(CC(=O)O)CCN(CC(=O)O)CC2)C(N)=O)NC(=O)[C@H](CC2CCOCC2)NC(=O)[C@H](Cc2c[nH]c3ccccc23)NC(=O)[C@H](CCC(N)=O)NC(=O)[C@H](CC(C)C)NC(=O)[C@H](Cc2cccc3ccccc23)NC1=O)C1CCCCC1` [compound 134, Ac-(Chg)-S-D-C(3)-(1Nal)-L-Q-W-(THPA)-C(3)-(aMe-P)-F-D-[D-Lys(DOTA)]-NH2] (Ac-[Chg]SDC[1Nal]LQW[Ala(4-THP)]C[αMeP]FD[dK](DOTA)-NH2; disulfide 4-10): 3.52 nM; for `CC(=O)N[C@H](C(=O)N[C@@H](CO)C(=O)N[C@@H](CC(=O)O)C(=O)N[C@H]1CSSC[C@@H](C(=O)N2CCC[C@@]2(C)C(=O)N[C@@H](Cc2ccccc2)C(=O)N[C@@H](CC(=O)O)C(=O)N[C@H](CCCCNC(=O)CN2CCN(CC(=O)O)CCN(CC(=O)O)CCN(CC(=O)O)CC2)C(N)=O)NC(=O)[C@H](C2CCOCC2)NC(=O)[C@H](Cc2c[nH]c3ccccc23)NC(=O)[C@H](CCC(N)=O)NC(=O)[C@H](CC(C)C)NC(=O)[C@H](Cc2cccc3ccccc23)NC1=O)C1CCCCC1` [compound 135, Ac-(Chg)-S-D-C(3)-(1Nal)-L-Q-W-(THPG)-C(3)-(aMe-P)-F-D-[D-Lys(DOTA)]-NH2] (Ac-[Chg]SDC[1Nal]LQW[Gly(4-THP)]C[αMeP]FD[dK](DOTA)-NH2; disulfide 4-10): more than 30 nM.
On the same count and under the same terms, the same measure for `CC(=O)N[C@H](C(=O)N[C@@H](CO)C(=O)N[C@@H](CC(=O)O)C(=O)N[C@H]1CSSC[C@@H](C(=O)N2CCC[C@@]2(C)C(=O)N[C@@H](Cc2cccnc2)C(=O)N[C@@H](CC(=O)O)C(=O)N[C@H](CCCCNC(=O)CN2CCN(CC(=O)O)CCN(CC(=O)O)CCN(CC(=O)O)CC2)C(N)=O)NC(=O)[C@H](CC(N)=O)NC(=O)[C@H](Cc2c[nH]c3ccccc23)NC(=O)[C@H](CCC(N)=O)NC(=O)[C@H](CC(C)C)NC(=O)[C@H](Cc2cccc3ccccc23)NC1=O)C1CCCCC1` [compound 136, Ac-(Chg)-S-D-C(3)-(1Nal)-L-Q-W-N-C(3)-(aMe-P)-(3Pya)-D-[D-Lys(DOTA)]-NH2] (Ac-[Chg]SDC[1Nal]LQWNC[αMeP][3Pal]D[dK](DOTA)-NH2; disulfide 4-10): 21.7 nM; for `CC(=O)N[C@H](C(=O)N[C@@H](CO)C(=O)N[C@@H](CC(=O)O)C(=O)N[C@H]1CSSC[C@@H](C(=O)N2CCC[C@@]2(C)C(=O)N[C@@H](Cc2ccncc2)C(=O)N[C@@H](CC(=O)O)C(=O)N[C@H](CCCCNC(=O)CN2CCN(CC(=O)O)CCN(CC(=O)O)CCN(CC(=O)O)CC2)C(N)=O)NC(=O)[C@H](CC(N)=O)NC(=O)[C@H](Cc2c[nH]c3ccccc23)NC(=O)[C@H](CCC(N)=O)NC(=O)[C@H](CC(C)C)NC(=O)[C@H](Cc2cccc3ccccc23)NC1=O)C1CCCCC1` [compound 137, Ac-(Chg)-S-D-C(3)-(1Nal)-L-Q-W-N-C(3)-(aMe-P)-(4Pya)-D-[D-Lys(DOTA)]-NH2] (Ac-[Chg]SDC[1Nal]LQWNC[αMeP][4Pal]D[dK](DOTA)-NH2; disulfide 4-10): more than 30 nM; for `CC(=O)N[C@H](CO)C(=O)N[C@@H](CC(=O)O)C(=O)N[C@H]1CSSC[C@@H](C(=O)N2CCC[C@@]2(C)C(=O)N[C@@H](Cc2ccccc2)C(=O)N[C@@H](CC(=O)O)C(=O)N[C@H](CCCCNC(=O)CN2CCN(CC(=O)O)CCN(CC(=O)O)CCN(CC(=O)O)CC2)C(N)=O)NC(=O)[C@H](CC(N)=O)NC(=O)[C@H](Cc2c[nH]c3ccccc23)NC(=O)[C@H](CCC(N)=O)NC(=O)[C@H](C2CCCCC2)NC(=O)[C@H](Cc2cccc3ccccc23)NC1=O` [compound 138, Ac-(D-Ser)-D-C(3)-(1Nal)-(Chg)-Q-W-N-C(3)-(aMe-P)-F-D-D-Lys(DOTA)-CONH2] (Ac-[dS]DC[1Nal][Chg]QWNC[αMeP]FD[dK](DOTA)-NH2; disulfide 3-9): 1.05 nM.
Consider `CC(=O)N[C@H](CO)C(=O)N[C@@H](CC(=O)O)C(=O)N[C@H]1CSSC[C@@H](C(=O)N2CCC[C@@]2(C)C(=O)N[C@@H](Cc2ccccc2)C(=O)N[C@@H](CC(=O)O)C(=O)N[C@H](CCCCNC(=O)CN2CCN(CC(=O)O)CCN(CC(=O)O)CCN(CC(=O)O)CC2)C(N)=O)NC(=O)[C@H](CC(N)=O)NC(=O)[C@H](Cc2c[nH]c3ccccc23)NC(=O)[C@H](CCC(N)=O)NC(=O)[C@@H](CC(C)C)NC(=O)[C@H](Cc2cccc3ccccc23)NC1=O` [compound 139, Ac-(D-Ser)-D-C(3)-(1Nal)-(D-Leu)-Q-W-N-C(3)-(aMe-P)-F-D-D-Lys(DOTA)-CONH2] (Ac-[dS]DC[1Nal][dL]QWNC[αMeP]FD[dK](DOTA)-NH2; disulfide 3-9), for which the Kd was more than 30 nM.
